Experimental data taken from ChEMBL document CHEMBL5053536, “Discovery of Quinazoline-2,4(1H,3H)-dione Derivatives Containing 3-Substituted Piperizines as Potent PARP-1/2 Inhibitors─Design, Synthesis, In Vivo Antitumor Activity, and X-ray Crystal Structure Analysis” (J Med Chem, 2021).
The source made the active and inactive calls. The calls are words filed in the database; no cut-off is given here.

Tests used:
[1] = AUC(0 to infinity) in BALB/c mouse at 25 mg/kg, po measured upto 24 hrs by LC-MS/MS analysis; assay type: ADME, organism-based; parameters: time < 24 hrs, dose 25 mg/kg, route po; conditions: in vivo
[2] = molecular target: T1, Poly [ADP-ribose] polymerase 2 (Homo sapiens, UniProt Q9UGN5); test: Binding affinity to recombinant human PARP2 assessed as dissociation half life by SPR assay
T1 sequence (Q9UGN5 whole entry): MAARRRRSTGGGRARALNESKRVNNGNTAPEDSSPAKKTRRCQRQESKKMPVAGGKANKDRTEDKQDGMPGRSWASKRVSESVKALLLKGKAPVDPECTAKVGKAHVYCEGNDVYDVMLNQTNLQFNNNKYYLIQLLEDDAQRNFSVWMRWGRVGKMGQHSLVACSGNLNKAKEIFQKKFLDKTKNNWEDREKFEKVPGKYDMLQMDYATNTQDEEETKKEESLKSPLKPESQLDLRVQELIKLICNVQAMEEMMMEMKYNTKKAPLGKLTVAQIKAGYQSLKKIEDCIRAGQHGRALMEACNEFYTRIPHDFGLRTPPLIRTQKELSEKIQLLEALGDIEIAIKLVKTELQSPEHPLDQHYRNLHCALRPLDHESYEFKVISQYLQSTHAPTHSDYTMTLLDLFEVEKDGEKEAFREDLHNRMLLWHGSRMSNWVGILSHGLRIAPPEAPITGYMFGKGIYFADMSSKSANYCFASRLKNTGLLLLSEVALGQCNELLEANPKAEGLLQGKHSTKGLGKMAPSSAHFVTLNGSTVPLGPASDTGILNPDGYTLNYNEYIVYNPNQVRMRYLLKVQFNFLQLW

[3] = test system: U-251; test: Inhibition of PARP1/2-mediated DNA repair in human U-251 cells assessed as increase in […] expression at 1 to 10 uM after 24 hrs in absence of TMZ by Western blot analysis; assay type: cell-based; conditions: dose 1-10 µM
[4] = test system: Mus musculus; test: Toxicity in BALB/c mouse xenografted with human U-87MG cells assessed as effect on body weight at 25 mg/kg, po administered once daily for 5 days and measured on day 8 in presence of 30 mg/kg TMZ (reference value: 18.8 +/- 0.7 g); assay type: organism-based; conditions: in vivo, 192 h, time 8 day
[5] = test system: T98G; test: Inhibition of PARP1/2-mediated DNA repair in human T98G cells assessed as increase in […] expression at 1 to 10 uM after 24 hrs in absence of TMZ by Western blot analysis; assay type: cell-based; conditions: dose 1-10 µM
[6] = Half life in Sprague-Dawley rat at 20 mg/kg, po measured upto 24 hrs by LC-MS/MS analysis; assay type: ADME, organism-based; conditions: in vivo
[7] = AUC(0 to infinity) in Beagle dog at 0.4 mg/kg, iv measured upto 24 hrs by LC-MS/MS analysis; assay type: ADME, organism-based, Canis lupus familiaris; parameters: dose 0.4 mg/kg, time < 24 hrs, route iv; conditions: in vivo
[8] = test system: T98G; test: Inhibition of PARP1/2-mediated DNA repair in human T98G cells assessed as increase in […] expression at 1 to 10 uM after 24 hrs in presence of TMZ by Western blot analysis; assay type: cell-based; conditions: dose 1-10 µM
[9] = molecular target: T2, Poly [ADP-ribose] polymerase 1 (Homo sapiens, UniProt P09874); test: Inhibition of recombinant human PARP1 using NAD+ as substrate incubated for 1 hr by ELISA
T2 sequence (P09874 whole entry): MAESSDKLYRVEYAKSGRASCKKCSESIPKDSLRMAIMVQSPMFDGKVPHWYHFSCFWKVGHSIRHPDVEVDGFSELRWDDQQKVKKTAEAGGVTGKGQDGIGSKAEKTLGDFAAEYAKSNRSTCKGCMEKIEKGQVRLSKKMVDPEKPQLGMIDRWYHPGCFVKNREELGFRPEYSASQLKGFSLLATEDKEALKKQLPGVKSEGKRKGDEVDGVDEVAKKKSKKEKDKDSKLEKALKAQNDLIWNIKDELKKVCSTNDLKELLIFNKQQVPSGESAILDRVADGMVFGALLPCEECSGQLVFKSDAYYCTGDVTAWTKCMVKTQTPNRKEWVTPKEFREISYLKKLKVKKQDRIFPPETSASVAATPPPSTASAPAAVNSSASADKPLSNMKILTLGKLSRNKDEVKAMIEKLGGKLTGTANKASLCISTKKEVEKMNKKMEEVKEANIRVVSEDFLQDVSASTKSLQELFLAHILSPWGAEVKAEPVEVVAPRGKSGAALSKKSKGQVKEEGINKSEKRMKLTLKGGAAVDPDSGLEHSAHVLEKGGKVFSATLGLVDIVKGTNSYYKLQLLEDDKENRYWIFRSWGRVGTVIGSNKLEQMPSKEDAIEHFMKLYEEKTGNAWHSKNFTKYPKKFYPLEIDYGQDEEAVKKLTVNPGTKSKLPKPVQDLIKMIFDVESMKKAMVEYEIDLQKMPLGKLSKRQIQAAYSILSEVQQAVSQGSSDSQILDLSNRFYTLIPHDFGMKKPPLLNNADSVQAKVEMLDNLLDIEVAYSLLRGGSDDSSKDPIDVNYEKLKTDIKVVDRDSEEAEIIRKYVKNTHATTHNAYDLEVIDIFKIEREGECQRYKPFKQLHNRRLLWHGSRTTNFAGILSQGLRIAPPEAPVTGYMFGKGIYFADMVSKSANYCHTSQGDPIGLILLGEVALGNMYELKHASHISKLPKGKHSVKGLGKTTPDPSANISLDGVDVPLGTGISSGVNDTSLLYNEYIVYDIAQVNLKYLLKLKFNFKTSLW

[10] = test system: U-87 MG; test: Antitumor activity against human U-87MG cells xenografted in BALB/c mouse assessed as T/C ratio at 25 mg/kg, po administered once daily for 5 days and measured upto 32 days in presence of 30 mg/kg TMZ by MRI scanner; assay type: functional, U-87MG ATCC; conditions: time <= 32 day
[11] = test system: A 172; test: Cytotoxicity against human A172 cells assessed as reduction in cell viability at 5 to 10 uM incubated for 72 hrs in presence of TMZ by MTT assay; assay type: functional, cell-based; conditions: dose 5-10 µM
[12] = test system: MDA-MB-436; test: Antitumor activity against human MDA-MB-436 cells xenografted in athymic nu/nu mouse assessed as tumor growth inhibition at 20 to 80 mg/kg, po administered once daily for 17 days; assay type: functional; conditions: dose 20-80 mg/kg, time 17 day
[13] = MRT(0 to infinity) in BALB/c mouse at 25 mg/kg, po measured upto 24 hrs by LC-MS/MS analysis; assay type: ADME, organism-based; conditions: in vivo
[14] = MRT(0 to infinity) in Beagle dog at 20 mg/kg, po measured upto 24 hrs by LC-MS/MS analysis; assay type: ADME, organism-based, Canis lupus familiaris; conditions: in vivo
[15] = test system: MX1; test: Inhibition of PARP1/2 in human MX1 cells assessed as reduction in PAR formation at 1 to 10 uM after 24 hrs by Western blot analysis; assay type: cell-based; conditions: dose 1-10 µM
[16] = MRT(0 to infinity) in Beagle dog at 0.4 mg/kg, iv measured upto 24 hrs by LC-MS/MS analysis; assay type: ADME, organism-based, Canis lupus familiaris; conditions: in vivo
[17] = Tmax in BALB/c mouse at 25 mg/kg, po measured upto 24 hrs by LC-MS/MS analysis; assay type: ADME, organism-based; conditions: in vivo
[18] = test system: U-251; test: Cytotoxicity against human U251 cells assessed as reduction in cell viability at 5 to 10 uM incubated for 72 hrs in presence of TMZ by MTT assay; assay type: functional, cell-based; conditions: dose 5-10 µM
[19] = test system: U-87 MG; test: Antitumor activity against human U-87MG cells xenografted in BALB/c mouse assessed as reduction in tumor volume at 25 mg/kg, po administered once daily for 5 days and measured on day 32 in presence of 30 mg/kg TMZ by MRI scanner; assay type: functional, U-87MG ATCC; conditions: time 32 day
[20] = AUC(0 to infinity) in Sprague-Dawley rat at 20 mg/kg, po measured upto 24 hrs by LC-MS/MS analysis; assay type: ADME, organism-based; parameters: time < 24 hrs, dose 20 mg/kg, route po; conditions: in vivo
[21] = MRT(0 to infinity) in Sprague-Dawley rat at 20 mg/kg, po measured upto 24 hrs by LC-MS/MS analysis; assay type: ADME, organism-based; conditions: in vivo
[22] = molecular target: T2, Poly [ADP-ribose] polymerase 1; test: Binding affinity to recombinant human PARP1 assessed as dissociation constant by SPR assay
[23] = test system: MDA-MB-436; test: Antitumor activity against human MDA-MB-436 cells xenografted in po dosed athymic nu/nu mouse assessed as tumor growth inhibition administered once daily for 17 days; assay type: functional, organism-based; conditions: time 17.0 day
[24] = Drug concentration in Sprague-Dawley rat brain assessed as brain blood ratio measured upto 24 hrs by LC-MS/MS analysis; assay type: ADME, organism-based; conditions: read-out: BBR
[25] = test system: MX1; test: Antitumor activity against human MX1 cells xenografted in athymic nu/nu mouse assessed as tumor growth inhibition at 12.5 to 25 mg/kg, po administered once daily for 5 days and measured on day 7 in presence of 50 mg/kg TMZ; assay type: functional; conditions: dose 12.5-25 mg/kg, time 7 day
[26] = test system: U-87 MG; test: Antitumor activity against human U-87MG cells xenografted in BALB/c mouse assessed as reduction in tumor volume at 50 mg/kg, po administered once daily for 5 days and measured on day 32 in presence of 30 mg/kg TMZ by MRI scanner; assay type: functional, U-87MG ATCC; conditions: time 32 day
[27] = Oral bioavailability in Beagle dog at 20 mg/kg measured upto 24 hrs by LC-MS/MS analysis; assay type: ADME, organism-based, Canis lupus familiaris; conditions: in vivo
[28] = Half life in BALB/c mouse at 25 mg/kg, po measured upto 24 hrs by LC-MS/MS analysis; assay type: ADME, organism-based; conditions: in vivo
[29] = molecular target: T2, Poly [ADP-ribose] polymerase 1; test: Binding affinity to recombinant human PARP1 assessed as dissociation half life by SPR assay
[30] = Half life in Beagle dog at 20 mg/kg, po measured upto 24 hrs by LC-MS/MS analysis; assay type: ADME, organism-based, Canis lupus familiaris; conditions: in vivo
[31] = AUC(0 to infinity) in Beagle dog at 20 mg/kg, po measured upto 24 hrs by LC-MS/MS analysis; assay type: ADME, organism-based, Canis lupus familiaris; parameters: dose 20 mg/kg, time < 24 hrs, route po; conditions: in vivo
[32] = Cmax in Beagle dog at 20 mg/kg, po measured upto 24 hrs by LC-MS/MS analysis; assay type: ADME, organism-based, Canis lupus familiaris; parameters: time < 24 hrs, dose 20 mg/kg, route po; conditions: in vivo
[33] = AUC(0 to t) in BALB/c mouse at 25 mg/kg, po measured upto 24 hrs by LC-MS/MS analysis; assay type: ADME, organism-based; parameters: dose 25 mg/kg, time < 24 hrs, route po; conditions: in vivo
[34] = Cmax in BALB/c mouse at 25 mg/kg, po measured upto 24 hrs by LC-MS/MS analysis; assay type: ADME, organism-based; parameters: time < 24 hrs, dose 25 mg/kg, route po; conditions: in vivo
[35] = molecular target: T1, Poly [ADP-ribose] polymerase 2; test: Binding affinity to recombinant human PARP2 assessed as dissociation constant by SPR assay
[36] = test system: U-251; test: Inhibition of PARP1/2-mediated DNA repair in human U-251 cells assessed as increase in […] expression at 1 to 10 uM after 24 hrs in presence of TMZ by Western blot analysis; assay type: cell-based; conditions: dose 1-10 µM
[37] = AUC(0 to t) in Sprague-Dawley rat at 20 mg/kg, po measured upto 24 hrs by LC-MS/MS analysis; assay type: ADME, organism-based; parameters: time < 24 hrs, dose 20 mg/kg, route po; conditions: in vivo

Question: For CC[C@@H]1CN(C(=O)c2cc(Cn3c(=O)[nH]c(=O)c4ccccc43)ccc2F)CCN1CC, which AUC(0-inf) [1] is on record?
Answer: 593 ng·h/mL

Question: What about the T1/2 [2] of the same compound?
Answer: 5.48 min

Question: What about the inhibition [3] of the same compound?
Answer: Active

Question: What about the Activity [4] of the same compound?
Answer: 18.2 g

Question: And the inhibition [5]?
Answer: Active

Question: What about the half-life [6] of the same compound?
Answer: 0.8 h

Question: And the AUC(0-inf) [7]?
Answer: 1430 ng·h/mL

Question: And the inhibition [8]?
Answer: Active

Question: What about the IC50 [9] of the same compound?
Answer: 0.51 nM

Question: And the T/C [10]?
Answer: 12.1%

Question: And the Activity [11]?
Answer: Active

Question: And the TGI [12]?
Answer: 68%

Question: And the MRT inf [13]?
Answer: 1.05 h

Question: What about the MRT inf [14] of the same compound?
Answer: 4.85 h

Question: And the inhibition [15]?
Answer: Active

Question: And the MRT inf [16]?
Answer: 1.43 h

Question: What about the Tmax [17] of the same compound?
Answer: 0.5 h

Question: And the Activity [18]?
Answer: Active

Question: What about the Activity [19] of the same compound?
Answer: 10.3 mm3

Question: What about the AUC(0-inf) [20] of the same compound?
Answer: 338 ng·h/mL

Question: And the MRT inf [21]?
Answer: 1.37 h

Question: What about the Kd [22] of the same compound?
Answer: 1.92 nM

Question: And the Activity [23]?
Answer: Dose-dependent effect

Question: What about the Kp at 24 h [24] of the same compound?
Answer: 0.1

Question: What about the TGI [25] of the same compound?
Answer: >90%

Question: And the Activity [26]?
Answer: 11.9 mm3

Question: What about the bioavailability [27] of the same compound?
Answer: 48.3%

Question: What about the half-life [28] of the same compound?
Answer: 0.57 h

Question: And the T1/2 [29]?
Answer: 1.26 h

Question: What about the half-life [30] of the same compound?
Answer: 3.78 h

Question: What about the AUC(0-inf) [31] of the same compound?
Answer: 34600 ng·h/mL

Question: What about the Cmax [32] of the same compound?
Answer: 6440 ng/mL

Question: What about the AUC(0-t) at 24 h [33] of the same compound?
Answer: 555 ng·h/mL

Question: What about the Cmax [34] of the same compound?
Answer: 399 ng/mL

Question: What about the Kd [35] of the same compound?
Answer: 51.5 nM

Question: And the inhibition [36]?
Answer: Active

Question: And the AUC(0-t) at 24 h [37]?
Answer: 330 ng·h/mL
